From US20050095287A1, “Fosinopril composition” (priority 2003, published 2005)

Assay: Solubility of the active drug (statement)
Type: physicochemical

- solubility: highly soluble
Compound: CCC(=O)O[C@@H](O[P@](=O)(CCCCc1ccccc1)CC(=O)N1C[C@H](C2CCCCC2)C[C@H]1C(=O)O)C(C)C [Fosinipril, Fosinopril]
